Data published in patent US5183805A (Board of Regents, The University of Texas System, priority 1990, dated 1993).
Read-outs that look alike come from different tables or passages of the source. Blank lines part the entries; values can stand above or below the molecule they belong to. Positions of bridges follow the written chain, without caps; N, C: chain ends. Residues, ends and D or L forms follow the SMILES beside them. No end group written: not given here.

How the values were obtained:
EGF receptor [1] = target: T1, EGF receptor (Homo sapiens, UniProt P00533); experiment: Summary statements on biological activity (receptor studies, parameters examined) compared with other EGF peptide analogs
Excerpt: Relative biological activity of a peptide also may reflect the activity of the peptide in immune complex kinase assays, the ability to inhibit ornithine decarboxylase activity, mitogenic stimulation activity, ability to induce EGF-r phosphorylation in vivo and action in the phosphorylation of calpactin.

EGF receptor [2] = target: T1, EGF receptor; experiment: Inhibition of 125I-EGF binding to A431 cells (EGF receptor competition assay); parameters: endogenous in cells; host or cells: A431 epidermoid carcinoma cells (ATCC CRL 1555)
Method: FIG. 3--Inhibition of ^125 I-EGF binding by synthetic peptides. 1×10^5 A431 cells were plated in each well of a 24 well tissue culture plate, and allowed to grow for 48 o hours. Cells were rinsed 3 times in cold serum-free DMEM containing 0.1% BSA and 50 mM HEPES, pH 7.4, then incubated in this medium for 45 min. at 4° C. Subsequently, varying concentrations of peptide (or unlabeled EFG) was added, followed by 20,000 cpm ^125 I-EGF. After 2 hours incubation, medium is removed and cells are washed two times in PBS, then solubilized in 1 ml IN NaOH at 24° C. for 18 hours. Radioactivity in the solution is determined in a gamma counter. Peptide A--cyclic peptide with tyr at position 6; Peptide B--linear peptide with tyr at position 6; Peptide C --cyclic peptide with phe at position 6.
For this assay, cells were grown overnight in serum free media in microtiter wells, washed several times in PBS, then incubated for 2h with various concentrations of peptides. ^125 I-EGF was then added for 3o min, cells were extensively washed, and radioactivity was estimated in a gamma counter.

EGF receptor [3] = target: T1, EGF receptor; experiment: Immune complex kinase assay of EGF-R immunoprecipitated from A431 cells, peptides added to the complexes, autophosphorylation measured; format: biochemical; parameters: endogenous in cells; host or cells: A431 epidermoid carcinoma cells (ATCC CRL 1555)
Method: A431 cells at approximately 70-80% confluency were lysed in a detergent-containing (RIPA) buffer, and clarified by centrifuging at 10,000×g for 10 min. […] Immune complexes were harvested after 15 min. incubation with 50 μl Pansorbin. For kinase assays, complexes were washed in RIPA buffer, then resuspended in 50 μl 1 0.1% Triton X-100 in 20 mM HEPES, pH 7.0, with the addition of 100 μm sodium vanadate. After 10 min. incubation, kinase reaction was initiated by addition of 50 μl of 20 mM HEPES containing 10 μCi γ^-32p ATP. Reaction was allowed to proceed at 25° C. for 10 min., and terminated by addition of RIPA buffer.
This assay is very sensitive, and kinase activation is among the earliest events in mitogenesis.
Immune complexes were harvested with formalin fixed staphylococcus aureus Cowan Strain (Calbiochem). These complexes were then assayed for kinase activity in an immune complex kinase assay.
Selected peptides from Example 3 were employed in the study.

[4] = Heath and Merrifield (1986); cited from earlier work
A431 cells = experiment: Mitogenic stimulation / growth of A431 cells; format: cell-based; details: for effect on A431 cell growth: serum-free medium, counted after 72 hours
Method: FlG. […] Mitogenic Stimulation of A431 cells. […] The peptide analog 38A is the cyclic form of the peptide with native tyrosine. Cells were harvested 72 hours later and counted with the aid of a hemacytometer.
A431 cells are a malignant cell line in which the study of EGF-r has been well characterized. […] Over the range of peptide analog concentrations tested, no inhibition of A431 cell growth was observed.

[5] = test system: ornithine decarboxylase (ODC) induction by EGF; experiment: Effect of peptide pretreatment on EGF-stimulated ODC induction in ME-180 cells; format: cell-based; details: 100-fold excess, 100 ng/ml peptide 30 min, then 10 ng/ml EGF 3 hours
Method: FIG. 4--Effect of synthetic peptide pretreatment on EGF-stimulated ODC induction in ME-180 cells. […] Cells are pelleted, sonicated in a buffer containing 25 mM NaPO4, 1mM DTT, 40 μM PLP, 0.1 mM EDTA, and centrifuged for 30 min. at 15,000 rpm at 4° C. Ornithine decarboxylase activity was determined on the supernatant by monitoring ^14 CO2 released from 0.5 μCi of I (^14 C) ornithine in a total ornithine concentration of 0.5 mM and a total volume of 0.2ml. P1--linear peptide and P2--cyclic peptide with phe at position 6; P3--linear peptide and P4--cyclic peptide with tyr at position 6.

EGF-R = target: T2, EGF-R (Homo sapiens, UniProt P00533); experiment: Kinetics of EGF-R kinase stimulation: peptide added to A431 cells, then immune complex kinase assay; format: cell-based; details: 20 ng/ml peptide, 37° C, very preliminary
T2 construct: endogenous in cells; host or cells: A431 epidermoid carcinoma cells (ATCC CRL 1555)
Method: FIG. 1 - Kinetics of EGF-R stimulation by synthetic peptides. To semi-confluent A431 cells (grown in 0.1% FCS), indicated concentrations of cyclic (peptide A) or linear (peptide D) peptide with tyr at position 6 was added at a concentration of 20 ng/ml for 10 min at 37° C. Cells were harvested, lysed, EFG-R was immunoprecipitated, immune complex kinase assays were performed, and proteins resolved as described in FIG. 1. […] This figure compares preliminary kinetics of kinase stimulation after the addition of the active cyclic and less-active linear peptide to A431 cells. Immune complex kinase of EGF-r after addition of various biological response modifiers to A431 cells is shown.

T1 sequence (P00533 25-1210): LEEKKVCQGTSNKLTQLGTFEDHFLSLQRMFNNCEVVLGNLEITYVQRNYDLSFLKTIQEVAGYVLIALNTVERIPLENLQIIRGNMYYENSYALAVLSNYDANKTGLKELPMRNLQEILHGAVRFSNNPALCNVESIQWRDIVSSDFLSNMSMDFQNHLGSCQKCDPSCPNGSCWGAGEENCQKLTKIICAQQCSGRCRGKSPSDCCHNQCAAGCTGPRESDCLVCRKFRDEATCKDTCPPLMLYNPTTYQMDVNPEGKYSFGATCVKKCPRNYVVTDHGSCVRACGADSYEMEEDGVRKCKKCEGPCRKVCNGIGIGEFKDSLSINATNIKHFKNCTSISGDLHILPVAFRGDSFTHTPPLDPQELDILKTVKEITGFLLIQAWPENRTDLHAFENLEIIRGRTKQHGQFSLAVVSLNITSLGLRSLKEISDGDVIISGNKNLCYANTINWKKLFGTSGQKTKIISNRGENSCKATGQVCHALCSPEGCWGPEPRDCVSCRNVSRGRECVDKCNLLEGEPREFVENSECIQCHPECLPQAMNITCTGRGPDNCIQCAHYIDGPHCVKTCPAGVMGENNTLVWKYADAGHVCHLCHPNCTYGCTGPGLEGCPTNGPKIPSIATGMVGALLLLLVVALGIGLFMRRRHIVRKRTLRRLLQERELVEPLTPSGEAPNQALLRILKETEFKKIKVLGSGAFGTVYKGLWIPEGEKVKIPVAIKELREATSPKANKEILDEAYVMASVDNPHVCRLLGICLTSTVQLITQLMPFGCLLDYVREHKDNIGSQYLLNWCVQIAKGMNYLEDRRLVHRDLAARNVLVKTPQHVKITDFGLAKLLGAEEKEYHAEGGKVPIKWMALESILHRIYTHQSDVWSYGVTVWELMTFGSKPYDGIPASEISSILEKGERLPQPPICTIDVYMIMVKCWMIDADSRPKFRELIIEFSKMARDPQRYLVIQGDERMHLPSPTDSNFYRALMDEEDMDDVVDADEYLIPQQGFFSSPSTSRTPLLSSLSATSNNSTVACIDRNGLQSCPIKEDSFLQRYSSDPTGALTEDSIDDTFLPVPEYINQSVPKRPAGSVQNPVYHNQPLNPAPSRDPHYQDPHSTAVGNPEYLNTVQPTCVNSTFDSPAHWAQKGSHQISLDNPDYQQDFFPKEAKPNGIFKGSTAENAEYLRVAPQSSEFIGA
T2 sequence (P00533 25-1210): as above

Molecule: CC[C@H](C)[C@@H]1NC(=O)[C@H](Cc2ccccc2)NC(=O)CNC(=O)[C@H](C(C)C)NC(=O)[C@H](C(C)C)NC(=O)[C@@H](NC(=O)[C@H](CC(N)=O)NC(C)=O)CSSC[C@@H](C(=O)N[C@@H](CCC(N)=O)C(=O)N[C@@H](Cc2ccc(O)cc2)C(=O)N[C@@H](CCCNC(=N)N)C(=O)N[C@@H](CC(=O)O)C(=O)N[C@@H](CC(C)C)C(=O)N[C@@H](CCCCN)C(N)=O)NC(=O)[C@H](CCCNC(=N)N)NC(=O)[C@H](CCC(=O)O)NC(=O)CNC1=O [Peptide C] (Ac-NCVVGFIGERCQYRDLK-NH2; disulfide 2-11)
stimulation of kinase activity (EGF receptor [3]; 30 ng/ml peptide): approximately 2 fold
competition for 125I-EGF binding (in words) (EGF receptor [2]): marginal competition

Molecule: isolated "B" loop: synthetic peptide of the isolated B loop of EGF (residues 20-31), Heath and Merrifield (CMYIEALDKYAC; ends and bridges not checked; cysteine pairing not given here; UniProt P01133 990-1001, looked up, fragment)
activity relative to EGF [4]: 0.001%

Molecule: epidermal growth factor (NSDSECPLSHDGYCLHDGVCMYIEALDKYACNCVVGYIGERCQYRDLKWWELR; Epidermal growth factor; UniProt P01133 971-1023, looked up) [EGF, single-chain polypeptide, 53 amino acid residues, three internal disulfide bonds]
effect on A431 cell growth (A431 cells; 0.1 ng/ml): stimulated A431 cell growth
effect on A431 cell growth (A431 cells; 0.1 ng/ml, listed as Native EGF): stimulated growth
effect on A431 cell growth (A431 cells; 10 ng/ml): inhibited
effect on A431 cell growth (A431 cells; 10 ng/ml, listed as Native EGF): inhibited cell growth

Further lines, with some results ahead:

biological activity relative to any other EGF peptide analog so far synthesized (EGF receptor [1]): 10 fold
competition for 125I-EGF binding (in words) (EGF receptor [2]): marginal competition
Molecule: CC[C@H](C)[C@H](NC(=O)[C@H](Cc1ccc(O)cc1)NC(=O)CNC(=O)[C@@H](NC(=O)[C@@H](NC(=O)[C@H](CS)NC(=O)[C@H](CC(N)=O)NC(C)=O)C(C)C)C(C)C)C(=O)NCC(=O)N[C@@H](CCC(=O)O)C(=O)N[C@@H](CCCNC(=N)N)C(=O)N[C@@H](CS)C(=O)N[C@@H](CCC(N)=O)C(=O)N[C@@H](Cc1ccc(O)cc1)C(=O)N[C@@H](CCCNC(=N)N)C(=O)N[C@@H](CC(=O)O)C(=O)N[C@@H](CC(C)C)C(=O)N[C@@H](CCCCN)C(N)=O [Peptide B] (Ac-NCVVGYIGERCQYRDLK-NH2)

stimulation of EGF-receptor kinase activity (in words) (EGF receptor [3]): no activity
Molecule: CC[C@H](C)[C@H](NC(=O)[C@H](Cc1ccccc1)NC(=O)CNC(=O)[C@@H](NC(=O)[C@@H](NC(=O)[C@H](CS)NC(=O)[C@H](CC(N)=O)NC(C)=O)C(C)C)C(C)C)C(=O)NCC(=O)N[C@@H](CCC(=O)O)C(=O)N[C@@H](CCCNC(=N)N)C(=O)N[C@@H](CS)C(=O)N[C@@H](CCC(N)=O)C(=O)N[C@@H](Cc1ccc(O)cc1)C(=O)N[C@@H](CCCNC(=N)N)C(=O)N[C@@H](CC(=O)O)C(=O)N[C@@H](CC(C)C)C(=O)N[C@@H](CCCCN)C(N)=O [Peptide P1] (Ac-NCVVGFIGERCQYRDLK-NH2)

biological activity relative to any other EGF peptide analog so far synthesized (EGF receptor [1]; listed as cyclic form of this unsubstituted peptide): 100 fold
biological activity relative to any other EGF peptide analog so far synthesized (EGF receptor [1]; listed as cyclic peptide comprising the end of the B loop and the C loop): 100 fold
biological activity relative to any other EGF peptide analog so far synthesized (EGF receptor [1]; listed as natural tyrosine form of the cyclic peptide analog): > 100 fold
time of maximum stimulation of kinase activity (EGF-R): 15 min
competition for EGF receptor binding relative to any previously reported peptide (EGF receptor [2]): 100 fold
concentration for 50% inhibition of 125I-EGF binding relative to that for unlabeled EGF (EGF receptor [2]): 10 fold
Molecule: CC[C@H](C)[C@@H]1NC(=O)[C@H](Cc2ccc(O)cc2)NC(=O)CNC(=O)[C@H](C(C)C)NC(=O)[C@H](C(C)C)NC(=O)[C@@H](NC(=O)[C@H](CC(N)=O)NC(C)=O)CSSC[C@@H](C(=O)N[C@@H](CCC(N)=O)C(=O)N[C@@H](Cc2ccc(O)cc2)C(=O)N[C@@H](CCCNC(=N)N)C(=O)N[C@@H](CC(=O)O)C(=O)N[C@@H](CC(C)C)C(=O)N[C@@H](CCCCN)C(N)=O)NC(=O)[C@H](CCCNC(=N)N)NC(=O)[C@H](CCC(=O)O)NC(=O)CNC1=O [Peptide A] (Ac-NCVVGYIGERCQYRDLK-NH2; disulfide 2-11)
effect on A431 cell growth (A431 cells; 0.1 ng/ml, listed as 38A): stimulated cell growth
effect on A431 cell growth (A431 cells; 0.1 ng/ml, listed as most biologically active cyclic peptide analog): stimulated these cells
effect of higher concentrations of EGF on A431 growth in the presence of peptide (A431 cells; 10 ng/ml peptide analog mixed with higher concentrations of EGF): no longer growth-inhibited
effect on A431 cell growth (A431 cells; 10 ng/ml, listed as 38A): stimulated cell growth
effect on A431 cell growth (A431 cells; 10 ng/ml, listed as most biologically active cyclic peptide analog): stimulated these cells
effect on A431 cell growth of peptide mixed with EGF (A431 cells; peptide and EGF mixed, low concentrations): stimulation of cell growth
inhibition of A431 cell growth over the range of concentrations tested (A431 cells; whole concentration range tested): no inhibition
inhibition of ODC induction of EGF [5]: 50%
